Results on five molecules are retold here after patent publication US20140357594A1, “NEW COMPOUNDS” (GlaxoSmithkline Intellectual Property (No.2) Limited, priority 2011, published 2014).

For test [1], the target named is T1, Human full-length DNMT1 enzyme (Homo sapiens, UniProt P26358).
T1 construct: Human full-length DNMT1 enzyme purchased from BPS Biosciences; purchased BPS Biosciences
As to the kind of experiment: DNMT inhibition assay (3H-SAM filter plate scintillation), DNMT1. The class given is biochemical. The settings on record: Poly(dIdC) DNA 0.002 mg/mL, H3 SAM 500 nM, 30 min pre-incubation without SAM, 37° C. 1 h. On the procedure:
(§1) Catalytic domains of human DNMT 3a/3L enzyme were produced by Accelagen. Human full-length DNMT1 enzyme purchased from BPS Biosciences. Poly(dldC) DNA (Sigma) was used at 0.002 mg/mL. H3 SAM (Perkin Elmer) was used at 500 nM. DNA, DNMT enzyme, and inhibitors were mixed with assay buffer (20 mM Tris pH8, 5% glycerol, 1 mM EDTA, 100 μg/mL BSA, 1 mM DTT, 50 mM NaCl) and pre-incubated without SAM for 30 min. H3 SAM was then added to initiate the methylation reaction which continues at 37° C. for 1 h. Reaction mixture was then transferred to a filter plate (Millipore Multiscreen HTS DE), then washed with 50 mM H2PO4 and 95% Ethanol. Scintillation counts were measured on the Perkin Elmer Microbeta scintillation counter.

For test [2], the target named is T2, Catalytic domains of human DNMT 3a/3L enzyme (Homo sapiens, UniProt Q9Y6K1).
T2 construct: Catalytic domains of human DNMT 3a/3L enzyme were produced by Accelagen; purchased Accelagen
As to the kind of experiment: DNMT inhibition assay (3H-SAM filter plate scintillation), DNMT 3a/3L. Format: biochemical. The following applies: Poly(dIdC) DNA 0.002 mg/mL, H3 SAM 500 nM, 30 min pre-incubation without SAM, 37° C. 1 h; read-out: DNMT 3a/3I IC50. The protocol:
as §1

T2 sequence (Q9Y6K1 634-912 limits assumed): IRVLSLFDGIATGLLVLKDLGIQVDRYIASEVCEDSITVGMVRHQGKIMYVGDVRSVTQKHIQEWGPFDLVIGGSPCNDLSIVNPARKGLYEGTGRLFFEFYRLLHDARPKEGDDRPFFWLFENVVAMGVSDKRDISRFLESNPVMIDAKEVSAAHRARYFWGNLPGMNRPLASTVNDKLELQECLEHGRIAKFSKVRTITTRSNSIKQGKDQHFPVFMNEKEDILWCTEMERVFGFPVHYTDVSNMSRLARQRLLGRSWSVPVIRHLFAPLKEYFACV
T2 sequence (Q9UJW3 178-386 partner limits assumed): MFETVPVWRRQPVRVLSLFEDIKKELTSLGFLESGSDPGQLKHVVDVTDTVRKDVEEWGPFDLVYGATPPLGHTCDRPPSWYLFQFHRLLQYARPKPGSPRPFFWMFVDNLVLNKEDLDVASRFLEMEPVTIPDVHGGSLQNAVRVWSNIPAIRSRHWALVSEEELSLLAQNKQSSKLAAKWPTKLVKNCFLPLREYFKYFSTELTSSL
T1 sequence (P26358 whole entry): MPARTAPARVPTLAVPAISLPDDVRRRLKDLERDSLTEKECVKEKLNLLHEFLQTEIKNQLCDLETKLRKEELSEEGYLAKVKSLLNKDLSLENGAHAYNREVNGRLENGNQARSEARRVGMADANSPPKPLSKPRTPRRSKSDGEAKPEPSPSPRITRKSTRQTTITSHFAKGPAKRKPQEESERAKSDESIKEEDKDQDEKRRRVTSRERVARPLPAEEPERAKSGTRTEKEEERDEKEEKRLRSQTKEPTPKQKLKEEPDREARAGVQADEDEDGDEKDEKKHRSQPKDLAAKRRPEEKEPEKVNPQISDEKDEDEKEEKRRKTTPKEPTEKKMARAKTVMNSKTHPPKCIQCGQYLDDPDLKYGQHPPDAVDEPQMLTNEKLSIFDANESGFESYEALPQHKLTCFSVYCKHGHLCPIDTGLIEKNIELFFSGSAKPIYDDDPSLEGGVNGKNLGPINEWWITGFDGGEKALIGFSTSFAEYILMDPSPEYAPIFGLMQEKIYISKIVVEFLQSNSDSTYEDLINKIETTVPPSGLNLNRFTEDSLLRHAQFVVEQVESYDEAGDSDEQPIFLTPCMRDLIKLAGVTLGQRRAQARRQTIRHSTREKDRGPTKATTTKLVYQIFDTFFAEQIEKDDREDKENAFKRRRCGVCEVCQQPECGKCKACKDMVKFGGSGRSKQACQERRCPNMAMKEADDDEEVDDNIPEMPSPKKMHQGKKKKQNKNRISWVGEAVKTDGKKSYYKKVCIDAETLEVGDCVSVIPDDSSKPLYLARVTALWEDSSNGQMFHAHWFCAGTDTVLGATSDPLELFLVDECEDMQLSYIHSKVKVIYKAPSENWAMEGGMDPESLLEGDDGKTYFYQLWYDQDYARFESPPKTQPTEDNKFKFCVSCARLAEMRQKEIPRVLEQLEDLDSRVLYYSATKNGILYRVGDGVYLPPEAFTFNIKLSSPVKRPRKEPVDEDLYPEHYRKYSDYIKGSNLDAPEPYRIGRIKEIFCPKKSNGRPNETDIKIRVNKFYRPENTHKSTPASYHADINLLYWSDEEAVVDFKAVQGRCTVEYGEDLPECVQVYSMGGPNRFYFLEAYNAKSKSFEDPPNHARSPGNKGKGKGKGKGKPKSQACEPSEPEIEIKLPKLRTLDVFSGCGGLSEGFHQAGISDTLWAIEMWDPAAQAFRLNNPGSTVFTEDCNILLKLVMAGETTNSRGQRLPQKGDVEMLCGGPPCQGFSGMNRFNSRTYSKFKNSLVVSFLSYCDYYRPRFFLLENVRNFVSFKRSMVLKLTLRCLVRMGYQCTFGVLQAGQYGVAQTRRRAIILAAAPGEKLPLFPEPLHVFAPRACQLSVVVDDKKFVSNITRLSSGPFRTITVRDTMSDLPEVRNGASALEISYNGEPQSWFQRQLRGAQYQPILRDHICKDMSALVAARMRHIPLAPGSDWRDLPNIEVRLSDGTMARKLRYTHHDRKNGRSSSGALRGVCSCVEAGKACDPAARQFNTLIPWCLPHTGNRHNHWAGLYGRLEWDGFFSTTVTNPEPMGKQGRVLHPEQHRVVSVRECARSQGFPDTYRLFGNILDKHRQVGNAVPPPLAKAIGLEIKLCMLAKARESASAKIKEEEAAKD

As for `Nc1ncnc2c1ncn2[C@H]1O[C@@H](CSCCNc2nccc(Cl)n2)[C@H](O)[C@@H]1O` [Example 1, (2S,3S,4R,5R)-2-(6-Amino-9H-purin-9-yl)-5-(((2-((4-chloropyrimidin-2-yl)amino)ethyl)thio)methyl)tetrahydrofuran-3,4-diol], the results for the IC50 in test [1] and in test [2] were more than 300 µM and 3 µM, respectively.
For the molecule `Nc1ncnc2c1ncn2[C@H]1O[C@@H](CSCCNc2ccnc(Cl)n2)[C@H](O)[C@@H]1O` [Example 2, (2S,3S,4R,5R)-2-(6-Amino-9H-purin-9-yl)-5-(((2-((2-chloropyrimidin-4-yl)amino)ethyl)thio)methyl)tetrahydrofuran-3,4-diol], in test [2], the IC50 stood at 95 µM.
The same measure, in the same setting: with `Nc1ncnc2c1ncn2[C@H]1O[C@@H](CSCCNc2ccncn2)[C@H](O)[C@@H]1O` [Example 3, (2S,3S,4R,5R)-2-(6-Amino-9H-purin-9-yl)-5-(((2-(pyrimidin-4-ylamino)ethyl)thio)methyl)tetrahydrofuran-3,4-diol] the figure was 26 µM.
On to `Nc1ncnc2c1ncn2[C@H]1O[C@@H](CSCCNc2cc(Cl)ncn2)[C@H](O)[C@@H]1O` [Example 4], for which the IC50 in test [1] was 48 µM; in test [2], 60 µM.
Take `C=CC(=O)NCCSC[C@@H]1O[C@H](n2cnc3c(N)ncnc32)[C@@H](O)[C@H]1O` [Example 5, N-(2-((((2R,3R,4S,5S)-5-(6-Amino-9H-purin-9-yl)-3,4-di hydroxytetrahydrofuran-2-yl)methyl)thio)ethyl)acrylamide]: the figures for the IC50 in test [1] and in test [2] were 49 µM and 24 µM, respectively.
